Measured values as given in paper PMC5896373 (Molecular Pharmacology, 2018).

Key:
P2X7R = test system: P2X7R; design: method as in North, 2002; Kaczmarek-Hajek et al., 2012; conditions: physiologic concentrations of calcium and magnesium; ref North, 2002; Kaczmarek-Hajek et al., 2012; cited from earlier work
[1] = test system: P2X7R left flipper point mutant K281A; assay: Two-electrode voltage clamp of ATP-evoked currents in Xenopus oocytes; assay type: cell-based, human
Experimental: (§1) Injected oocytes were stored at 16°C in ND96 buffer [in millimolar concentrations, NaCl 96, KCl 2, CaCl2 1.8, MgCl2 1, sodium pyruvate 5, and HEPES 5 (pH 7.6) supplemented with 50 μg/ml gentamycin and 50 μg/ml tetracycline]. Three to seven days postinjection two-electrode voltage clamp recordings were made from oocytes bathed in divalent-free ND96 buffer (in millimolar concentrations, NaCl 96, KCl 2, sodium pyruvate 5, HEPES 5, and 0.1 flufenamic acid, pH 7.6). Oocytes were voltage clamped at a holding potential of −60 mV with a GeneClamp500B amplifier (Molecular Devices).
(§2) Electrophysiological traces were digitized with a Digidata 1322A and collected using pCLAMP 8.2 software (Molecular Devices, Menlo Park, CA). An EC90 concentration of ATP was used to test antagonist sensitivity for the P2X7-2Nβ and mutant receptors [ATP sensitivity of the chimeras and mutants are reported in [Allsopp et al. (2017)]] to standardize for any changes in ATP sensitivity.
(§3) Inhibition by the antagonists was expressed as the percentage of the peak current amplitude of an EC90 concentration of ATP recorded before the application of antagonist (ATP gave reproducible responses to ATP in the absence of antagonist). […] Any significant differences from the P2X7-2Nβ control were calculated by one-way analysis of variance, followed by Dunnett’s test (using GraphPad Prism 6). […]

P2X7R point mutant R206A = molecular target: T1, P2X7R point mutant R206A (Homo sapiens, UniProt Q99572, I21V/M24R/N16P/N25R/Q22R/R206A/R20V/S23N/T19I/Y26L); assay: as above; assay type: cell-based; conditions: mean ± S.E.M.
T1 construct: expressed in transfected cells; host or cells: Xenopus laevis oocytes (cRNA injection)
Experimental: as §1, §2, §3

[2] = test system: P2X7R left flipper point mutant N284A; assay: as above; assay type: cell-based, human
Experimental: (§4) The production of the correct mutations and absence of coding errors was determined by DNA sequencing (Automated ABI Sequencing Service, University of Leicester, UK). cRNA was generated for the mutants and 50 nl (50 ng) was injected into manually defoliculated stage V Xenopus laevis oocytes using an Inject+Matic microinjector (J.A. Gabay, Inject+Matic, Geneva, Switzerland). Injected oocytes were stored at 16°C in ND96 buffer [in millimolar concentrations, NaCl 96, KCl 2, CaCl2 1.8, MgCl2 1, sodium pyruvate 5, and HEPES 5 (pH 7.6) supplemented with 50 μg/ml gentamycin and 50 μg/ml tetracycline]. Three to seven days postinjection two-electrode voltage clamp recordings were made from oocytes bathed in divalent-free ND96 buffer (in millimolar concentrations, NaCl 96, KCl 2, sodium pyruvate 5, HEPES 5, and 0.1 flufenamic acid, pH 7.6). Oocytes were voltage clamped at a holding potential of −60 mV with a GeneClamp500B amplifier (Molecular Devices).
(§5) Inhibition by the antagonists was expressed as the percentage of the peak current amplitude of an EC90 concentration of ATP recorded before the application of antagonist (ATP gave reproducible responses to ATP in the absence of antagonist). Inhibition curves were fitted with the Hill equation (variable slope) using GraphPad Prism 6 (GraphPad Software, San Diego, CA). […]

[3] = test system: P2X7R left flipper point mutant T283A; assay: as above; assay type: cell-based, human
Experimental: as §1, §2, §3

[4] = test system: P2X7R left flipper point mutant D280A; assay: as above; assay type: cell-based, human
Experimental: as §4, §5

other P2XR subtypes = test system: other P2XR subtypes; design: method as in North, 2002; Kaczmarek-Hajek et al., 2012; conditions: ref North, 2002, Kaczmarek-Hajek et al., 2012; cited from earlier work
[5] = molecular target: T2, chimeric P2X7R with left flipper 280–284 of P2X4 (Homo sapiens, UniProt Q99572, D280T/I21V/K281R/M24R/N16P/N25R/N284E/Q22R/R20V/S23N/T19I/T282D/T283V/Y26L); conditions: chimera 280–284 of P2X4
T2 sequence (Q99572 1-595 N16P/T19I/R20V/I21V/Q22R/S23N/M24R/N25R/Y26L/D280T/K281R/T282D/T283V/N284E): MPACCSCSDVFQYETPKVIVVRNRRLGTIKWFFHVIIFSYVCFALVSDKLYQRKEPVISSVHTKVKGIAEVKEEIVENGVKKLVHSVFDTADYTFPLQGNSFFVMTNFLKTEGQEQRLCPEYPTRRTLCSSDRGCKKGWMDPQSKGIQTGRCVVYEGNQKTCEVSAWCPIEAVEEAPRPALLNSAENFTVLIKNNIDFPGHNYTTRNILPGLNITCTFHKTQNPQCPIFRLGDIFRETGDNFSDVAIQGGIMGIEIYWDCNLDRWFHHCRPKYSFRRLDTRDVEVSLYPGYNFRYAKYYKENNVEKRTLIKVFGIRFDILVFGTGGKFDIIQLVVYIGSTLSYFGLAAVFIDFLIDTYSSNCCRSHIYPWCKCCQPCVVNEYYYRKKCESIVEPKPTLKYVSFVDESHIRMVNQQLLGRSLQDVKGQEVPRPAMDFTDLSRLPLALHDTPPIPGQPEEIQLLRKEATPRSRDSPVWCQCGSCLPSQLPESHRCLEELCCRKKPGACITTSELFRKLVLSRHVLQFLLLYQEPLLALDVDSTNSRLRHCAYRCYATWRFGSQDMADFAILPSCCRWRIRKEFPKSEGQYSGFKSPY
Experimental: as §4
Inhibition by the antagonists was expressed as the percentage of the peak current amplitude of an EC90 concentration of ATP recorded before the application of antagonist (ATP gave reproducible responses to ATP in the absence of antagonist). Inhibition curves were fitted with the Hill equation (variable slope) using GraphPad Prism 6 (GraphPad Software, San Diego, CA). […] Individual concentration-response curves were generated for individual experiments, and statistical analysis was carried out on the data generated. […] Data are shown as mean ± S.E.M. In all cases n ≥ 3 for all data points.

P2X7R point mutant K193A = molecular target: T3, P2X7R point mutant K193A (Homo sapiens, UniProt Q99572, I21V/K193A/M24R/N16P/N25R/Q22R/R20V/S23N/T19I/Y26L); assay: Two-electrode voltage clamp of ATP-evoked currents in Xenopus oocytes; assay type: cell-based
T3 construct: expressed in transfected cells; host or cells: Xenopus laevis oocytes (cRNA injection)
Experimental: as §1, §2, §3

[6] = molecular target: T4, chimeric P2X7/1 receptor 279–285 (left flipper) (Homo sapiens, UniProt Q99572, DEL279-281/I21V/M24R/N16P/N25R/N284E/Q22R/R20V/S23N/T19I/T282Y/T283E/V285K/Y26L); design: method as in Allsopp et al., 2017; conditions: chimera 279–285; ref Allsopp et al., 2017; cited from earlier work
T4 construct: expressed in transfected cells; host or cells: Xenopus laevis oocytes (cRNA injection)
T4 sequence (Q99572 with tags, fused parts or gaps N16P/T19I/R20V/I21V/Q22R/S23N/M24R/N25R/Y26L/DEL279-281/T282Y/T283E/N284E/V285K): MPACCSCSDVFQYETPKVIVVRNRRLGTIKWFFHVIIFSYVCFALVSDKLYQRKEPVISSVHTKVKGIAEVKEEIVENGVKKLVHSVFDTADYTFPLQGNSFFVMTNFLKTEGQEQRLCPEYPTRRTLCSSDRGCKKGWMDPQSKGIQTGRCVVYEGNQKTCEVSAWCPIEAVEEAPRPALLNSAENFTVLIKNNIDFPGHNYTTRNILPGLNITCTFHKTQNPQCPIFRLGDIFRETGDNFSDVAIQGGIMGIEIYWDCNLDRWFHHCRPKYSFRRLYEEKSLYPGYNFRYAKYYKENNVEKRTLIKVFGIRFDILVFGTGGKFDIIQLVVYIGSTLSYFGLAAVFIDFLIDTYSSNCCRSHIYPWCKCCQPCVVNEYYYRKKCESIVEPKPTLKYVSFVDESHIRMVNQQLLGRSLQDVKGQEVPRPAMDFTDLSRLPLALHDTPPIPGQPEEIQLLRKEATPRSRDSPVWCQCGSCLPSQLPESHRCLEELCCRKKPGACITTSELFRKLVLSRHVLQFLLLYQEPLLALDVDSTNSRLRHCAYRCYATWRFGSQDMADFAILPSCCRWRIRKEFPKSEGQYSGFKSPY

[7] = test system: P2X7R left flipper point mutant T282A; assay: Two-electrode voltage clamp of ATP-evoked currents in Xenopus oocytes; assay type: cell-based, human
Experimental: as §4, §5

T1 sequence (Q99572 whole entry N16P/T19I/R20V/I21V/Q22R/S23N/M24R/N25R/Y26L/R206A): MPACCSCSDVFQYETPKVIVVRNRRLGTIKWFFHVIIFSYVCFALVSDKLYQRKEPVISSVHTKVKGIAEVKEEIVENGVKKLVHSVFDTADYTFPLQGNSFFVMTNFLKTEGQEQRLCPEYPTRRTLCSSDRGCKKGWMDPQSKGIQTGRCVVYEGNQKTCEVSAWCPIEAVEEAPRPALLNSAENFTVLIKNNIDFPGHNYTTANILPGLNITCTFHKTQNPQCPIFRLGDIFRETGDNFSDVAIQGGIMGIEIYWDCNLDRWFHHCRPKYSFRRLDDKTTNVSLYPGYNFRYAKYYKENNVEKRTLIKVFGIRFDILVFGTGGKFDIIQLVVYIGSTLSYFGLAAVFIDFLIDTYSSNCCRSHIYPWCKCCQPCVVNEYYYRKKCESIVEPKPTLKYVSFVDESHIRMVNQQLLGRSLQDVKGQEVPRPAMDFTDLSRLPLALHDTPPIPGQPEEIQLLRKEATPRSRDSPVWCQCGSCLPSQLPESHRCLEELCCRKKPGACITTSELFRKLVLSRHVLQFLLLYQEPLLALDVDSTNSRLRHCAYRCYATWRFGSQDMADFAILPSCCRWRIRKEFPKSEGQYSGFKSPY
T3 sequence (Q99572 whole entry N16P/T19I/R20V/I21V/Q22R/S23N/M24R/N25R/Y26L/K193A): as the sequence (Q99572 whole entry N16P/T19I/R20V/I21V/Q22R/S23N/M24R/N25R/Y26L/R206A) above, with K193A, A206R counted along it

Nc1ncnc2c1ncn2[C@@H]1O[C@H](COP(=O)(O)OP(=O)(O)OP(=O)(O)O)[C@@H](O)[C@H]1O [ATP]
EC50 (P2X7R): 300 to 1000 µM | fold decrease in ATP sensitivity [1]: 2 fold | ATP sensitivity pEC50 (P2X7R point mutant R206A): 4.33 ± 0.06 | effect on ATP sensitivity [2]: no effect | fold decrease in ATP sensitivity [3]: 3.4 fold | fold increase in ATP potency [4]: 15 fold | EC50 (other P2XR subtypes): 1 to 30 µM | fold increase in ATP sensitivity/potency [5]: ~15 fold | amplitude of ATP-evoked responses (P2X7R point mutant K193A): < 100 nA | fold increase in sensitivity to ATP [6]: ~30 fold | effect on ATP sensitivity [7]: no effect
